Data published in patent publication US20190071670A1, “Methods Of Treatment For Alpha-1 Antitrypsin Deficiency” (Arrowhead Pharmaceuticals, Inc., priority 2016, published 2019).

Tested on: liver morphology of PiZ mice
Experiment: Liver histology (H&E) of PiZ mice
Assay type: in vivo
Experimental: AAT RNAi agent was administered to PiZ mice. Each mouse received a biweekly administration of an intravenous (IV) dose of 8 mg/kg AAT RNAi agent with 8 mg/kg of MLP delivery polymer for 8 weeks. Mice were bled weekly to monitor hAAT levels in serum and were sacrificed on day 57 after administration of AAT RNAi agent with MLP delivery polymer. Liver samples were harvested and fixed in 10% neutral-buffered formalin and embedded in paraffin. Inflammatory infiltration was assessed by H&E staining. […] PiZ mice injected biweekly with saline had significant globule accumulation as well as inflammatory infiltration around damaged or dead hepatocytes. Aggregation of Z-hAAT was visualized by performing diastase-resistant periodic acid Schiff (PAS-D) staining on liver sections. Diastase digestion of glycogen prior to performing a PAS stain allows positive staining of Z-AAT protein accumulation, or “globules”. […] The number of globules, the size of the globules and the area of the liver covered by globules was digitally quantitated from liver specimens stained with PAS-D. Mice treated with AAT RNAi agent had 85% fewer globules, 85% smaller globules, and 96% less area of the liver covered with globules than saline-injected controls (FIG. 3).
Baseline mice had significant globule accumulation with globules that were 5-10 microns in diameter, compressed nuclei, apoptosis and inflammatory cell infiltration. Saline treated mice had significant globule accumulation with globules that were 25-35 microns in diameter, compressed nuclei, and inflammatory cell infiltration.

[1] = PiZ mice, AAT RNAi agent + MLP treated, n = 16
[2] = male PiZ mice, biweekly AAT RNAi agent with MLP (Example 9)

In the case of “Duplex Pair SEQ ID NO: 5/6: double-stranded AAT RNAi agent: modified antisense strand SEQ ID NO: 5 annealed to Chol-TEG sense strand SEQ ID NO: 6 (antisense TGGAACUUGGUGAUGAUAUTT; sense UAUAUAUCAUCACCAAGUUCCAT; Chol-TEG on sense strand; chemical modifications; antisense strand of dsRNA; modified_base 7 /mod_base = “2′-3′ seco corresponding nucleotide”; modified_base 2,4,6,8,10,12,14,16,18 /mod_base = “2′-deoxy-2′-fluoro corresponding nucleoside”; modified_base 3,5,9,11,13,15,17,19 /mod_base = “2′-O-methyl corresponding nucleoside”; modified_base 21 /mod_base = “5′-phosphorothioate corresponding nucleotide”; sense strand of dsRNA; modified_base 2 /mod_base = “2′-hydroxy corresponding nucleoside”; modified_base 4,6,8,10,12,14,16,18,20,22 /mod_base = “2′-deoxy-2′-fluoro corresponding nucleoside”; …)”, the “Score: Inflammatory foci, Moderate (number of animals)” value [1] is reported as 11, the “Score: Inflammatory foci, None (number of animals)” value [1] is reported as 5 and the “Score: Inflammatory foci, Severe (number of animals)” value [1] is reported as 0. The “Score: Compressed nuclei (animals/total)” value (PiZ mice, AAT RNAi agent + MLP treated, n = 16, baseline 7/12, saline 13/13) was 3/16, the “Liver morphology and inflammatory infiltration (H&E staining)” value (PiZ mice, biweekly IV 8 mg/kg with 8 mg/kg MLP delivery polymer for 8 weeks, day 57) was “normal morphology, no detectably inflammatory infiltrate and very rare, small Z-hAAT globules” and the compressed nuclei [2] was “fewer compressed nuclei than either baseline or saline-treated mice”. The inflammatory infiltration [2] was “no inflammatory infiltration”, the globule diameter (male PiZ mice, biweekly AAT RNAi agent with MLP (Example 9), baseline 5-10, saline 25-35 microns) was 7-10 microns and the globule accumulation (male PiZ mice, biweekly AAT RNAi agent with MLP (Example 9), baseline and saline: significant) was “minimal to moderate”.
